Results reported in US20090176811A1, “Substituted 5,6,7,8-Tetrahydro-pyrido[4,3-d]pyrimidine-2-yl Compounds and 5,6,7,8-Tetrahydro-quinazoline-2-yl Compounds” (GRUENENTHAL GmbH, priority 2004, published 2009).

Legend:
5-HT transporter = biological target: T1, 5-HT transporter (Rattus norvegicus, UniProt P31652); experiment: 5-HT uptake inhibition in rat brain synaptosomes (medulla and pons); assay type: biochemical
T1 construct: from tissue; host or cells: rat medulla and pons synaptosomes (P2 fraction)
Excerpt: (§1) I. Method for Determining Noradrenalin and 5-HT Uptake Inhibition:
(§2) Synaptosomes from rat brain regions are freshly isolated for in vitro studies, as described in the publication “The isolation of nerve endings from brain” by E. G. Gray and V. P. Whittaker, J. Anatomy 96, pages 79-88, 1962. The corresponding literature description is hereby introduced as a reference and is deemed to be part of the disclosure.
(§3) The tissue (hypothalamus for the determination of noradrenalin uptake inhibition and medulla and pons for the determination of 5-HT uptake inhibition) is homogenised in ice-cooled 0.32 M sucrose (100 mg of tissue/1 mL) in a glass homogeniser with Teflon pestle using five complete up and down strokes at 840 revolutions/minute.
(§4) The homogenate is centrifuged at 4° C. for 10 minutes at 1000 g. After subsequent centrifugation at 17000 g for 55 minutes, the synaptosomes (P2 fraction) are obtained, which are resuspended in 0.32 M […] (0.5 mL/100 mg of original weight).
(§5) The particular uptake is measured in a 96-well microtitre plate. The volume is 250 μl and the incubation proceeds at room temperature (approx. 20-25° C.) under an O2 atmosphere.
(§6) The incubation time is 7.5 minutes for [^3H]-NA and 5 minutes for [^3H]-5-HT.
(§7) The 96 samples are then filtered through a Unifilter GF/B microtitre plate (Packard) and washed with 200 mL of incubated buffer using a “Brabdel MPXRI-96T Cell-Harvester”. The Unifilter GF/B plate is dried for 1 hour at 55° C. The plate is then sealed with a Back seal (Packard) and 35 μl of scintillation fluid are added per well (Ultima Gold, Packard). After sealing with a top seal (Packard) and establishing an equilibrium (around 5 hours), radioactivity is determined in a “Trilux 1450 Microbeta” (Wallac).
(§8) The quantity of protein used in the above determination corresponds to the values known from the literature, as for example described in “Protein measurement with the folin phenol reagent”, Lowry et al., J. Biol. Chem., 193, 265-275, 1951.
(§9) A detailed description of the method may additionally be found in the literature, for example in M. Ch. Frink, H.-H. Hennies, W. Engelberger, M. Haurand and B. Wilffert (1996) Arzneim.-Forsch./Drug Res. 46 (III), 11, 1029-1036.
(§10) The corresponding literature descriptions are hereby introduced in each case as a reference and are deemed to be part of the present disclosure.
(§11) The following characteristics were determined for the NA or 5-HT transporter: […]

NA transporter = biological target: T2, NA transporter (Rattus norvegicus, UniProt Q63380); experiment: Noradrenalin uptake inhibition in rat brain synaptosomes (hypothalamus); assay type: biochemical
T2 construct: from tissue; host or cells: rat hypothalamus synaptosomes (P2 fraction)
Excerpt: as §1, §2, §3, §4, §5, §6, §7, §8, §9, §10, §11

T1 sequence (P31652 whole entry): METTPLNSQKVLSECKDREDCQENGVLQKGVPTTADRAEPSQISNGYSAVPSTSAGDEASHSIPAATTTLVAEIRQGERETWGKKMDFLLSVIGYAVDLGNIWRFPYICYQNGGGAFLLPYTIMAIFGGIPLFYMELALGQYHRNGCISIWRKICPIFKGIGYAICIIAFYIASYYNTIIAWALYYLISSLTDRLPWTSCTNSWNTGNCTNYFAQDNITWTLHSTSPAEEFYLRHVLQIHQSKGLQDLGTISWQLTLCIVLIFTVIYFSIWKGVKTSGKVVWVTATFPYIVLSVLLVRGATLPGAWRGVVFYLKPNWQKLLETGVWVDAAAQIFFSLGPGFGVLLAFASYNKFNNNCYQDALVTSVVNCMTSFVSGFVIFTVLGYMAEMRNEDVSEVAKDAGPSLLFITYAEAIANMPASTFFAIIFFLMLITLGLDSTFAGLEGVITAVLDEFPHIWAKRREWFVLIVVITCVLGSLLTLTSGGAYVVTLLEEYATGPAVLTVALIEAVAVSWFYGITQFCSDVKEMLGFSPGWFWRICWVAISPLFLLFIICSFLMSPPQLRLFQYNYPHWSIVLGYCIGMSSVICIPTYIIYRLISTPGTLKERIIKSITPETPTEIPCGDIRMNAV
T2 sequence (Q63380 1-617): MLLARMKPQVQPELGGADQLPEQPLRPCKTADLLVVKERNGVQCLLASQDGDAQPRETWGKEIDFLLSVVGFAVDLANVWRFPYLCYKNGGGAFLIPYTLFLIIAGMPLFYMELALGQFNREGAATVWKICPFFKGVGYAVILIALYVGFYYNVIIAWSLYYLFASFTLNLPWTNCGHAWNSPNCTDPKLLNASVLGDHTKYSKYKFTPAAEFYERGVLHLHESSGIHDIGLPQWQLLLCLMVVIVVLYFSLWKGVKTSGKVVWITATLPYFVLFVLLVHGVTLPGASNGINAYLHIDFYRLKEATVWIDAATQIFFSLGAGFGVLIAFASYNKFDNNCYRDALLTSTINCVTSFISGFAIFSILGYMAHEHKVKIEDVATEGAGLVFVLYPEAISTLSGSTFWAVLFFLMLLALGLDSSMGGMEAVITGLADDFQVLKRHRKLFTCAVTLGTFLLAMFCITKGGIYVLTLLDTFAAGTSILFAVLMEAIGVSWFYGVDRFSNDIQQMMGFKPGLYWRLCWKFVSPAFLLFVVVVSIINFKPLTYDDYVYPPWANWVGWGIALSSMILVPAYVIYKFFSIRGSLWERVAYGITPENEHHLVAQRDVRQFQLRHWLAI

Row | SMILES | inhibition at 1 µM (5-HT transporter) | inhibition at 10 µM (NA transporter) | other results
1 | O=C(Nc1ncc2c(n1)CCN(S(=O)(=O)c1cccc(Br)c1)C2)c1cccc(Cl)c1 [Example 125, N-[6-(3-bromo-benzenesulfonyl)-5,6,7,8-tetrahydro-pyrido[4,3-d]pyrimidin-2-yl]-3-chloro-benzamide] | 43% | 70% | –
2 | COc1ccc(S(=O)(=O)N2CCc3nc(NC(=O)c4ccc(F)cc4)ncc3C2)cc1 [Example 185, 4-fluoro-N-[6-(4-methoxy-benzenesulfonyl)-5,6,7,8-tetrahydro-pyrido[4,3-d]pyrimidin-2-yl]-benzamide] | – | 36% | –
3 | O=C(Nc1ncc2c(n1)CCN(S(=O)(=O)c1ccc(Cl)cc1)C2)c1ccc(Cl)c(Cl)c1 [Example 71, 3,4-dichloro-N-[6-(4-chloro-benzenesulfonyl)-5,6,7,8-tetrahydro-pyrido[4,3-d]pyrimidin-2-yl]-benzamide] | 47% | 74% | –
4 | O=C(Nc1ncc2c(n1)CCN(C(=O)c1ccc3ccccc3c1)C2)c1ccc(Cl)cc1 [Example 69] | – | – | 5-HT uptake, rat, 1 μM, % inhibition (5-HT transporter): 70%; NA uptake, rat, 10 μM, % inhibition (NA transporter): 73%
5 | CCc1ccc(C(=O)Nc2ncc3c(n2)CCN(S(=O)(=O)c2ccsc2)C3)cc1 [Example 121, 4-ethyl-N-[6-(thiophene-3-sulfonyl)-5,6,7,8-tetrahydro-pyrido[4,3-d]pyrimidin-2-yl]-benzamide] | 52% | 92% | –
6 | O=C(Nc1ncc2c(n1)CCN(C(=O)C1CCc3ccccc3C1)C2)c1cccc(F)c1 (centres unmarked) [Example 141, 3-fluoro-N-[6-(1,2,3,4-tetrahydro-naphthalene-2-carbonyl)-5,6,7,8-tetrahydro-pyrido[4,3-d]pyrimidin-2-yl]-benzamide] | 54% | 55% | –
7 | O=C(Nc1ncc2c(n1)CCN(S(=O)(=O)c1cccs1)C2)c1ccc(F)c(F)c1 [Example 72, 3,4-difluoro-N-[6-(thiophene-2-sulfonyl)-5,6,7,8-tetrahydro-pyrido[4,3-d]pyrimidin-2-yl]-benzamide] | – | 41% | –
8 | O=C(Nc1ncc2c(n1)CCN(C(=O)c1c(F)cccc1Cl)C2)c1cccc(Cl)c1 [Example 127, 3-chloro-N-[6-(2-chloro-6-fluoro-benzoyl)-5,6,7,8-tetrahydro-pyrido[4,3-d]pyrimidin-2-yl]-benzamide] | 35% | 71% | –
9 | CCCC(=O)Nc1ncc2c(n1)CCC(NS(=O)(=O)c1ccc(C(C)(C)CC)cc1)C2 (centres unmarked) [Example 167, N-{6-[4-(1,1-dimethyl-propyl)-benzenesulfonylamino]-5,6,7,8-tetrahydro-quinazolin-2-yl}-butyramide] | 32% | – | –
10 | O=C(Nc1ncc2c(n1)CCN(C(=O)c1cccc(F)c1)C2)c1cccc2ccccc12 [Example 183, naphthalene-1-carboxylic acid [6-(3-fluoro-benzoyl)-5,6,7,8-tetrahydro-pyrido[4,3-d]pyrimidin-2-yl]-amide] | – | 63% | –
11 | Cc1ccc(C(=O)Nc2ncc3c(n2)CCN(C(=O)c2ccc(SC(F)(F)F)cc2)C3)cc1 [Example 148, 4-methyl-N-[6-(4-trifluoromethylsulfanyl-benzoyl)-5,6,7,8-tetrahydro-pyrido[4,3-d]pyrimidin-2-yl]-benzamide] | 32% | – | –
12 | CC(C(=O)N1CCc2nc(NC(=O)c3ccccc3)ncc2C1)c1ccc(Cl)cc1 (centres unmarked) [Example 176, N-{6-[2-(4-chloro-phenyl)-propionyl]-5,6,7,8-tetrahydro-pyrido[4,3-d]pyrimidin-2-yl}-benzamide] | – | 38% | –
13 | Cc1ccc([N+](=O)[O-])cc1S(=O)(=O)N1CCc2nc(NC(=O)c3ccccc3F)ncc2C1 [Example 150, 2-fluoro-N-[6-(2-methyl-5-nitro-benzenesulfonyl)-5,6,7,8-tetrahydro-pyrido[4,3-d]pyrimidin-2-yl]-benzamide] | 54% | – | –
14 | COc1ccccc1C(=O)Nc1ncc2c(n1)CCN(C(=O)COCc1ccccc1)C2 [Example 195, N-[6-(2-benzyloxy-acetyl)-5,6,7,8-tetrahydro-pyrido[4,3-d]pyrimidin-2-yl]-2-methoxy-benzamide] | – | 31% | –
15 | CCOC(=O)CC(=O)N1CCc2nc(NC(=O)c3cccc(Cl)c3)ncc2C1 [Example 124, 3-[2-(3-chloro-benzoylamino)-7,8-dihydro-5H-pyrido[4,3-d]pyrimidin-6-yl]-3-oxo-propionic acid ethyl ester] | – | 65% | –
16 | COc1ccccc1C(=O)Nc1ncc2c(n1)CCN(S(=O)(=O)c1ccc(Cl)s1)C2 [Example 86, N-[6-(5-chloro-thiophene-2-sulfonyl)-5,6,7,8-tetrahydro-pyrido[4,3-d]pyrimidin-2-yl]-2-methoxy-benzamide] | – | 32% | –
17 | COc1cccc(C(=O)Nc2ncc3c(n2)CCN(C(=O)c2cccc(F)c2F)C3)c1 [Example 80, N-[6-(2,3-difluoro-benzoyl)-5,6,7,8-tetrahydro-pyrido[4,3-d]pyrimidin-2-yl]-3-methoxy-benzamide] | – | 54% | –
18 | O=C(NC1CCc2nc(NC(=O)c3cccs3)ncc2C1)c1cc(F)cc(F)c1 (centres unmarked) [Example 97, thiophene-2-carboxylic acid [6-(3,5-difluoro-benzoylamino)-5,6,7,8-tetrahydro-quinazolin-2-yl]-amide] | 30% | – | –
19 | COc1cccc(C(=O)Nc2ncc3c(n2)CCN(C(=O)c2cccc(OC(F)(F)F)c2)C3)c1 [Example 199, 3-methoxy-N-[6-(3-trifluoromethoxy-benzoyl)-5,6,7,8-tetrahydro-pyrido[4,3-d]pyrimidin-2-yl]-benzamide] | – | 52% | –

Further lines, with some results ahead:

Row | inhibition at 1 µM (5-HT transporter) | SMILES | inhibition at 10 µM (NA transporter) | other results
20 | 34% | COc1ccc(C(=O)N2CCc3nc(NC(=O)c4cccc(Cl)c4)ncc3C2)cc1OC [Example 119, 3-chloro-N-[6-(3,4-dimethoxy-benzoyl)-5,6,7,8-tetrahydro-pyrido[4,3-d]pyrimidin-2-yl]-benzamide] | 72% | –
21 | 40% | CCCS(=O)(=O)NC1CCc2nc(NC(=O)c3ccc(F)cc3)ncc2C1 (centres unmarked) [Example 160, 4-fluoro-N-[6-(propane-1-sulfonylamino)-5,6,7,8-tetrahydro-quinazolin-2-yl]-benzamide] | – | –
22 | 63% | CC1(C)C2CCC1(CS(=O)(=O)N1CCc3nc(NC(=O)c4cccc(F)c4)ncc3C1)C(=O)C2 (centres unmarked) [Example 102, N-[6-(7,7-dimethyl-2-oxo-bicyclo[2.2.1]hept-1-ylmethanesulfonyl)-5,6,7,8-tetrahydro-pyrido[4,3-d]pyrimidin-2-yl]-3-fluoro-benzamide] | – | –
23 | 69% | CCc1ccc(C(=O)Nc2ncc3c(n2)CCN(C(=O)c2ccc4ncccc4c2)C3)cc1 [Example 173, 4-ethyl-N-[6-(quinoline-6-carbonyl)-5,6,7,8-tetrahydro-pyrido[4,3-d]pyrimidin-2-yl]-benzamide] | – | –
24 | 29% | CCCC(=O)Nc1ncc2c(n1)CCC(NS(=O)(=O)CC13CCC(CC1=O)C3(C)C)C2 (centres unmarked) [Example 162, N-[6-(7,7-dimethyl-2-oxo-bicyclo[2.2.1]hept-1-ylmethanesulfonylamino)-5,6,7,8-tetrahydro-quinazolin-2-yl]-butyramide] | – | –
25 | 65% | O=C(Nc1ncc2c(n1)CCN(C(=O)c1cc(F)cc3c1OCOC3)C2)c1ccccc1C(F)(F)F [Example 103, N-[6-(6-fluoro-4H-benzo[1,3]dioxin-8-carbonyl)-5,6,7,8-tetrahydro-pyrido[4,3-d]pyrimidin-2-yl]-2-trifluoromethyl-benzamide] | – | –
26 | 32% | CCN(CC)C(=O)CCC(=O)N1CCc2nc(NC(=O)c3cc(Cl)cc(Cl)c3)ncc2C1 [Example 171, 3,5-dichloro-N-[6-(3-diethylcarbamoyl-propionyl)-5,6,7,8-tetrahydro-pyrido[4,3-d]pyrimidin-2-yl]-benzamide] | – | –
27 | 32% | CC(C)(C)OC(=O)NCCC(=O)NC1CCc2nc(NC(=O)c3cccs3)ncc2C1 (centres unmarked) [Example 149, (2-{2-[(thiophene-2-carbonyl)-amino]-5,6,7,8-tetrahydro-quinazolin-6-ylcarbamoyl}-ethyl)-carbamic acid tert-butyl ester] | – | –
28 | 35% | O=C(Nc1ncc2c(n1)CCC(NS(=O)(=O)Cc1ccccc1)C2)c1cccs1 (centres unmarked) [Example 165, thiophene-2-carboxylic acid (6-phenylmethanesulfonylamino-5,6,7,8-tetrahydro-quinazolin-2-yl)-amide] | – | –
